Test results published in patent publication US20230277534A1 (Plexxikon Inc., priority 2011, published 2023).

Legend:
[1] = target: B-Raf V600E (Homo sapiens (Human), UniProt P15056, V600E); assay: B-Raf V600E kinase biochemical activity assay (AlphaScreen, biotin-MEK1 substrate); settings: 100 μM ATP
Method in brief: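 IC50 was derived from AlphaScreen signal (anti-phospho-MEK1/2 antibody with streptavidin donor and Protein A acceptor beads, 3 h) across 8 compound concentrations. The kinase step ran 45 min at room temperature: 0.1 ng B-Raf V600E, 100 nM biotin-MEK1, 100 μM final ATP, pH 7.0 HEPES with MgCl2/MnCl2.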

[2] = test system: COLO205 colon adenocarcinoma cells (B-Raf V600E mutation); assay: COLO205 cell growth inhibition (ATPlite); assay type: cell-based; settings: Homo sapiens, COLO 205, 72 h, 3 days
Method in brief: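 Cells treated for 3 days at 37 °C, 5% CO2 with an 8-point 1:3 dilution series, top final concentration 10 μM, DMSO control. ATPlite luminescence used as a measure of cell number; IC50 from reading versus concentration.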

Chain of B-Raf V600E (P15056 whole entry V600E): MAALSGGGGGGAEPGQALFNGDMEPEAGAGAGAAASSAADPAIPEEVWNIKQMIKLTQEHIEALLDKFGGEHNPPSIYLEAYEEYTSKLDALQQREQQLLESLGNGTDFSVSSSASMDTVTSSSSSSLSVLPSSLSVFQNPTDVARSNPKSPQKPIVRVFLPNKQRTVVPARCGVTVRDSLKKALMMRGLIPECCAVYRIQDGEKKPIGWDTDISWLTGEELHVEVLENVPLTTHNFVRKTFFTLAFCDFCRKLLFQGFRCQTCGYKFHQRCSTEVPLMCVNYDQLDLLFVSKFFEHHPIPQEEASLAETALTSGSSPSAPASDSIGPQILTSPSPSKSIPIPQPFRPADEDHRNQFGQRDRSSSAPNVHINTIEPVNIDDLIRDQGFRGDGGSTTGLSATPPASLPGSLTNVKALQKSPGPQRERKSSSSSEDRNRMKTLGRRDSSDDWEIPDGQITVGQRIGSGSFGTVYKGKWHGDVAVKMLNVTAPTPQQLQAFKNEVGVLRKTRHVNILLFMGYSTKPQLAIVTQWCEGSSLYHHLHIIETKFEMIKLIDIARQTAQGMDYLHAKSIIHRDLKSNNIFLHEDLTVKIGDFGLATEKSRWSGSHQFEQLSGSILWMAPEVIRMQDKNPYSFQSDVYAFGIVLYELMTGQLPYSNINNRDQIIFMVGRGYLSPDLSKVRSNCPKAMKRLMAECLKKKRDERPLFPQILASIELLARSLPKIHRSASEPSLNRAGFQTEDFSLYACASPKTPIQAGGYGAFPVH

Structure (SMILES) | IC50 [1] [µM] | IC50 [2] [µM]
CCC(C)S(=O)(=O)Nc1cccc(C(=O)c2c[nH]c3ncc(-c4ccc(C5(C#N)CC5)cc4)cc23)c1F (stereo not shown) [Compound P-0227, N-[3-[5-[4-(1-cyanocyclopropyl)phenyl]-1H-pyrrolo[2,3-b]pyridine-3-carbonyl]-2-fluoro-phenyl]butane-2-sulfonamide] | < 0.1 | < 1
CCC(C)S(=O)(=O)Nc1cccc(C(=O)c2c[nH]c3ncc(-c4cnc(C(C)C)nc4)cc23)c1F (stereo not shown) [Compound P-0229, N-[2-fluoro-3-[5-(2-isopropylpyrimidin-5-yl)-1H-pyrrolo[2,3-b]pyridine-3-carbonyl]phenyl]butane-2-sulfonamide] | < 0.1 | < 1
CCC(C)S(=O)(=O)Nc1cccc(C(=O)c2c[nH]c3ncc(-c4ccc(N(C)C)nc4)cc23)c1F (stereo not shown) [Compound P-0230, N-[3-[5-[6-(dimethylamino)-3-pyridyl]-1H-pyrrolo[2,3-b]pyridine-3-carbonyl]-2-fluoro-phenyl]butane-2-sulfonamide] | < 0.1 | < 1
CCC(C)S(=O)(=O)Nc1cccc(C(=O)c2c[nH]c3ncc(-c4cnc(C)nc4)cc23)c1F (stereo not shown) [Compound P-0231, N-[2-fluoro-3-[5-(2-methylpyrimidin-5-yl)-1H-pyrrolo[2,3-b]pyridine-3-carbonyl]phenyl]butane-2-sulfonamide] | < 0.1 | < 1
O=C(c1cccc(NS(=O)(=O)N2CCCC2)c1F)c1c[nH]c2ncc(-c3cnc(N4CCOCC4)nc3)cc12 [Compound P-0235, N-[2-fluoro-3-[5-(2-morpholinopyrimidin-5-yl)-1H-pyrrolo[2,3-b]pyridine-3-carbonyl]phenyl]pyrrolidine-1-sulfonamide] | < 0.1 | < 1
CCC(C)S(=O)(=O)Nc1cccc(C(=O)c2c[nH]c3ncc(-c4cnc(N5CCOCC5)nc4)cc23)c1F (stereo not shown) [Compound P-0236, N-[2-fluoro-3-[5-(2-morpholinopyrimidin-5-yl)-1H-pyrrolo[2,3-b]pyridine-3-carbonyl]phenyl]butane-2-sulfonamide] | < 0.1 | < 1
CN(C)S(=O)(=O)Nc1ccc(F)c(C(=O)c2c[nH]c3ncc(-c4cnc(C5CC5)nc4)cc23)c1F [Compound P-0238, 5-(2-cyclopropylpyrimidin-5-yl)-3-[3-(dimethylsulfamoylamino)-2,6-difluoro-benzoyl]-1H-pyrrolo[2,3-b]pyridine] | < 0.1 | < 1
CCN(C)S(=O)(=O)Nc1ccc(F)c(C(=O)c2c[nH]c3ncc(-c4cnc(C5CC5)nc4)cc23)c1F [Compound P-0240, 5-(2-cyclopropylpyrimidin-5-yl)-3-[3-[[ethyl(methyl)sulfamoyl]amino]-2,6-difluoro-benzoyl]-1H-pyrrolo[2,3-b]pyridine] | < 0.1 | < 1
O=C(c1c(F)ccc(NS(=O)(=O)N2CCCC2)c1F)c1c[nH]c2ncc(-c3cnc(C4CC4)nc3)cc12 [Compound P-0241, N-[3-[5-(2-cyclopropylpyrimidin-5-yl)-1H-pyrrolo[2,3-b]pyridine-3-carbonyl]-2,4-difluoro-phenyl]pyrrolidine-1-sulfonamide] | < 0.1 | < 1
CCCNS(=O)(=O)Nc1cccc(C(=O)c2c[nH]c3ncc(-c4cnn(C)c4)cc23)c1F [Compound P-0242, [2-fluoro-3-(propylsulfamoylamino)phenyl]-[5-(1-methylpyrazol-4-yl)-1H-pyrrolo[2,3-b]pyridin-3-yl]methanone] | < 0.1 | > 1
O=C(c1cccc(NS(=O)(=O)N2CCCC2)c1F)c1c[nH]c2ncc(-c3ccc(C4(C(=O)O)CC4)cc3)cc12 [Compound P-0243, 1-[4-[3-[2-fluoro-3-(pyrrolidin-1-ylsulfonylamino)benzoyl]-1H-pyrrolo[2,3-b]pyridin-5-yl]phenyl]cyclopropanecarboxylic acid] | < 0.1 | > 1
CC1(C)CCN(S(=O)(=O)Nc2cccc(C(=O)c3c[nH]c4ncc(-c5cnc(C6CC6)nc5)cc34)c2F)C1 [Compound P-0246, N-[3-[5-(2-cyclopropylpyrimidin-5-yl)-1H-pyrrolo[2,3-b]pyridine-3-carbonyl]-2-fluoro-phenyl]-3,3-dimethyl-pyrrolidine-1-sulfonamide] | < 0.1 | > 1
CC1CCN(S(=O)(=O)Nc2cccc(C(=O)c3c[nH]c4ncc(-c5cnc(C6CC6)nc5)cc34)c2F)C1 (stereo not shown) [Compound P-0247, N-[3-[5-(2-cyclopropylpyrimidin-5-yl)-1H-pyrrolo[2,3-b]pyridine-3-carbonyl]-2-fluoro-phenyl]-3-methyl-pyrrolidine-1-sulfonamide] | < 0.1 | < 1
CN(C1CC1)S(=O)(=O)Nc1cccc(C(=O)c2c[nH]c3ncc(-c4cnc(C5CC5)nc4)cc23)c1F [Compound P-0249, 3-[3-[[cyclopropyl(methyl)sulfamoyl]amino]-2-fluoro-benzoyl]-5-(2-cyclopropylpyrimidin-5-yl)-1H-pyrrolo[2,3-b]pyridine] | < 0.1 | < 1
CCCNS(=O)(=O)Nc1cccc(C(=O)c2c[nH]c3ncc(-c4cnc(C5CC5)nc4)cc23)c1F [Compound P-0251, [5-(2-cyclopropylpyrimidin-5-yl)-1H-pyrrolo[2,3-b]pyridin-3-yl]-[2-fluoro-3-(propylsulfamoylamino)phenyl]methanone] | < 0.1 | > 1
CN(C1CC1)S(=O)(=O)Nc1ccc(F)c(C(=O)c2c[nH]c3ncc(-c4cnc(C5CC5)nc4)cc23)c1F [Compound P-0252, 3-[3-[[cyclopropyl(methyl)sulfamoyl]amino]-2,6-difluoro-benzoyl]-5-(2-cyclopropylpyrimidin-5-yl)-1H-pyrrolo[2,3-b]pyridine] | < 0.1 | < 1
NC(=O)C1(c2ccc(-c3cnc4[nH]cc(C(=O)c5cccc(NS(=O)(=O)N6CCCC6)c5F)c4c3)cc2)CC1 [Compound P-0253, 1-[4-[3-[2-fluoro-3-(pyrrolidin-1-ylsulfonylamino)benzoyl]-1H-pyrrolo[2,3-b]pyridin-5-yl]phenyl]cyclopropanecarboxamide] | < 0.1 | > 1
CCOc1ncc(-c2cnc3[nH]cc(C(=O)c4c(F)ccc(NS(=O)(=O)N(C)CC)c4F)c3c2)cn1 [Compound P-0256, 5-(2-ethoxypyrimidin-5-yl)-3-[3-[[ethyl(methyl)sulfamoyl]amino]-2,6-difluoro-benzoyl]-1H-pyrrolo[2,3-b]pyridine] | < 0.1 | < 1
CCN(C)S(=O)(=O)Nc1ccc(F)c(C(=O)c2c[nH]c3ncc(-c4cnc(N5CCOCC5)nc4)cc23)c1F [Compound P-0258, 4-[5-[3-[3-[[ethyl(methyl)sulfamoyl]amino]-2,6-difluoro-benzoyl]-1H-pyrrolo[2,3-b]pyridin-5-yl]pyrimidin-2-yl]morpholine] | < 0.1 | < 1
CCN(C)S(=O)(=O)Nc1ccc(F)c(C(=O)c2c[nH]c3ncc(-c4cccc(N5CCOCC5)c4)cc23)c1F [Compound P-0259, 4-[3-[3-[3-[[ethyl(methyl)sulfamoyl]amino]-2,6-difluoro-benzoyl]-1H-pyrrolo[2,3-b]pyridin-5-yl]phenyl]morpholine] | < 0.1 | < 1
CN1CCN(c2ncc(-c3cnc4[nH]cc(C(=O)c5c(F)ccc(NS(=O)(=O)N6CCCC6)c5F)c4c3)cn2)CC1 [Compound P-0260, N-[2,4-difluoro-3-[5-[2-(4-methylpiperazin-1-yl)pyrimidin-5-yl]-1H-pyrrolo[2,3-b]pyridine-3-carbonyl]phenyl]pyrrolidine-1-sulfonamide] | < 0.1 | < 1
O=C(c1c(F)ccc(NS(=O)(=O)N2CCCC2)c1F)c1c[nH]c2ncc(-c3cnc(N4CCNCC4)nc3)cc12 [Compound P-0261, N-[2,4-difluoro-3-[5-(2-piperazin-1-ylpyrimidin-5-yl)-1H-pyrrolo[2,3-b]pyridine-3-carbonyl]phenyl]pyrrolidine-1-sulfonamide] | < 0.1 | < 1
O=C(c1c(F)ccc(NS(=O)(=O)N2CCCC2)c1F)c1c[nH]c2ncc(-c3cnc(N4CCC(O)CC4)nc3)cc12 [Compound P-0262, N-[2,4-difluoro-3-[5-[2-(4-hydroxy-1-piperidyl)pyrimidin-5-yl]-1H-pyrrolo[2,3-b]pyridine-3-carbonyl]phenyl]pyrrolidine-1-sulfonamide] | < 0.1 | < 1
CCN(C)S(=O)(=O)Nc1ccc(F)c(C(=O)c2c[nH]c3ncc(-c4cnc(N5CCN(C)CC5)nc4)cc23)c1F [Compound P-0263, 3-[3-[[ethyl(methyl)sulfamoyl]amino]-2,6-difluoro-benzoyl]-5-[2-(4-methylpiperazin-1-yl)pyrimidin-5-yl]-1H-pyrrolo[2,3-b]pyridine] | < 0.1 | < 1
CCN(C)S(=O)(=O)Nc1ccc(F)c(C(=O)c2c[nH]c3ncc(-c4cnc(N5CCNCC5)nc4)cc23)c1F [Compound P-0268, 3-[3-[[ethyl(methyl)sulfamoyl]amino]-2,6-difluoro-benzoyl]-5-(2-piperazin-1-ylpyrimidin-5-yl)-1H-pyrrolo[2,3-b]pyridine] | < 0.1 | < 1
O=C(c1c(F)ccc(NS(=O)(=O)N2CCCC2)c1F)c1c[nH]c2ncc(-c3cnc(N4CCC4)nc3)cc12 [Compound P-0269, N-[3-[5-[2-(azetidin-1-yl)pyrimidin-5-yl]-1H-pyrrolo[2,3-b]pyridine-3-carbonyl]-2,4-difluoro-phenyl]pyrrolidine-1-sulfonamide] | < 0.1 | < 1
